From PubChem BioAssay AID330 (DTP/NCI, 2004)
“And” between values parts separate entries of the source, which are not always exact repeats. Equal values may be shown once. Inconclusive results and toxic doses are left out. Rule for the calls: active = survival T/C of 150% or more; inactive = T/C below 125% in these data.

Test system: P388 leukemia ip, CD2F1 mice, survival T/C
Assay: NCI In Vivo Anticancer Drug Screen. Data for tumor model P388 Leukemia (intraperitoneal) in CD2F1 (CDF1) mice
Conditions: endpoint: median survival time, higher = longer survival
How it was run: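 Mice carrying the transplanted tumor received test compound or vehicle. Survival was recorded in each group, and the value is the treated-group measurement divided by that of the vehicle-treated control group.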

[1] = dose: 25.0 mg/kg/injection, schedule: Q01DX005 (ip), vehicle: saline with Tween-80
[2] = dose: 50.0 mg/kg/injection, schedule: Q01DX005 (ip), vehicle: saline with Tween-80
[3] = dose: 100.0 mg/kg/injection, schedule: Q01DX005 (ip), vehicle: saline with Tween-80
[4] = dose: 200.0 mg/kg/injection, schedule: Q01DX005 (ip), vehicle: saline with Tween-80
[5] = dose: 50.0 mg/kg/injection, schedule: Q01DX009 (ip), vehicle: Klucel (hydroxypropylcellulose) (HPC)
[6] = dose: 100.0 mg/kg/injection, schedule: Q01DX009 (ip), vehicle: Klucel (hydroxypropylcellulose) (HPC)
[7] = dose: 200.0 mg/kg/injection, schedule: Q01DX009 (ip), vehicle: Klucel (hydroxypropylcellulose) (HPC)
[8] = dose: 60.0 mg/kg/injection, schedule: Q01DX005 (ip), vehicle: saline with Tween-80
[9] = dose: 120.0 mg/kg/injection, schedule: Q01DX005 (ip), vehicle: saline with Tween-80
[10] = dose: 240.0 mg/kg/injection, schedule: Q01DX005 (ip), vehicle: saline with Tween-80

Measured: T/C

[O-][n+]1c(Cl)c(Cl)[n+]([O-])c2[nH]c(C(F)(F)F)nc21
inactive: [1] 103 % of control | [2] 96 % of control | [3] 102 % of control | [4] 90 % of control and 96 % of control

COc1cccc(C(=O)CC(c2ccccc2)C(C)(C)[N+](=O)[O-])c1 (centres undefined)
inactive: [1] 105 % of control | [2] 99 % of control | [3] 99 % of control

Oc1c(CN2CCCC2)cc(Nc2cc(/C=C/c3ccc(Cl)cc3)nc(/C=C\c3ccc(Cl)cc3)n2)cc1CN1CCCC1
inactive: dose: 0.62 mg/kg/injection, schedule: Q01DX009 (ip), vehicle: saline with Tween-80 103 % of control | dose: 1.25 mg/kg/injection, schedule: Q01DX009 (ip), vehicle: saline with Tween-80 112 % of control | dose: 2.5 mg/kg/injection, schedule: Q01DX009 (ip), vehicle: saline with Tween-80 105 % of control | dose: 5.0 mg/kg/injection, schedule: Q01DX009 (ip), vehicle: saline with Tween-80 106 % of control | dose: 10.0 mg/kg/injection, schedule: Q01DX009 (ip), vehicle: saline with Tween-80 92 % of control

FC(F)(F)c1ccc(C2(c3ccccc3)C=C(c3ccccc3)SC(c3ccccc3)=C2)cc1
inactive: [5] 102 % of control | [6] 94 % of control | [7] 97 % of control

CC(=O)NS(=O)(=O)c1ccc(N=CC2C(=O)N(c3ccccc3)N(c3ccccc3)C2=O)cc1
inactive: dose: 25.0 mg/kg/injection, schedule: Q01DX001 (ip), vehicle: Klucel (hydroxypropylcellulose) (HPC) 86 % of control | dose: 50.0 mg/kg/injection, schedule: Q01DX001 (ip), vehicle: Klucel (hydroxypropylcellulose) (HPC) 91 % of control | dose: 100.0 mg/kg/injection, schedule: Q01DX001 (ip), vehicle: Klucel (hydroxypropylcellulose) (HPC) 92 % of control

Oc1ccccc1C=Nc1ccc2nc(SCc3ccccc3)sc2c1
inactive: [5] 109 % of control | [6] 100 % of control | [7] 89 % of control

Cc1cc(=O)n2[nH]cnc2n1
inactive: dose: 12.5 mg/kg/injection, schedule: Q01DX009 (ip), vehicle: Klucel (hydroxypropylcellulose) (HPC) 97 % of control | dose: 25.0 mg/kg/injection, schedule: Q01DX009 (ip), vehicle: Klucel (hydroxypropylcellulose) (HPC) 109 % of control and 110 % of control and 98 % of control | [7] 99 % of control and 107 % of control and 109 % of control | dose: 400.0 mg/kg/injection, schedule: Q01DX009 (ip), vehicle: Klucel (hydroxypropylcellulose) (HPC) 104 % of control and 119 % of control

O=c1[nH]c2cc(Cl)ccc2nc1/C=C(\O)c1ccccc1O
inactive: [8] 86 % of control and 95 % of control | [9] 92 % of control | [10] 89 % of control and 96 % of control

CNCC(C(=O)c1ccccc1)C(=O)c1ccccc1
inactive: [2] 95 % of control | [3] 101 % of control | [4] 110 % of control

c1ccc(/C(=N\Nc2ccc3ccccc3n2)c2ccccn2)cc1
inactive: [2] 110 % of control | [3] 94 % of control | [4] 100 % of control

CN1CCC2(CC1)OCCCO2
inactive: [1] 102 % of control | [2] 94 % of control | dose: 50.0 mg/kg/injection, schedule: Q01DX005 (ip), vehicle: saline 99 % of control | dose: 75.0 mg/kg/injection, schedule: Q01DX001 (ip), vehicle: saline with Tween-80 105 % of control | [3] 100 % of control and 88 % of control | dose: 100.0 mg/kg/injection, schedule: Q01DX005 (ip), vehicle: saline 96 % of control | dose: 125.0 mg/kg/injection, schedule: Q01DX001 (ip), vehicle: saline with Tween-80 101 % of control | dose: 200.0 mg/kg/injection, schedule: Q01DX005 (ip), vehicle: saline 102 % of control | dose: 250.0 mg/kg/injection, schedule: Q01DX001 (ip), vehicle: saline with Tween-80 93 % of control

CSc1nc2c(nnn2C2OCC(O)C(O)C2O)c(=O)n1C (centres undefined)
inactive: [8] 102 % of control | [9] 99 % of control | [10] 96 % of control

O=C(N/C(=C\c1ccccc1)C(=O)N1CCNCC1)c1ccccc1
inactive: [2] 93 % of control | [3] 89 % of control | [4] 87 % of control
